Reference: ChEMBL document CHEMBL4219032, “Triple Reuptake Inhibitors as Potential Therapeutics for Depression and Other Disorders: Design Paradigm and Developmental Challenges” (J Med Chem, 2018)

Legend:
[1] = target: Sodium-dependent serotonin transporter (Rattus norvegicus, UniProt P31652); experiment: Inhibition of rat brain SERT assessed as reduction of [3H]5-HT re-uptake preincubated for 30 mins followed by [3H]5-HT addition measured after 5 mins by scintillation counting
[2] = target: Norepinephrine transporter (Rattus norvegicus, UniProt Q9WTR4); experiment: Inhibition of rat brain NET assessed as reduction of [3H]-NE re-uptake preincubated for 30 mins followed by [3H]-NE addition measured after 5 mins by scintillation counting
[3] = target: Sodium-dependent dopamine transporter (Rattus norvegicus, UniProt P23977); experiment: Inhibition of rat brain DAT assessed as reduction of [3H]-DA re-uptake preincubated for 30 mins followed by [3H]-DA addition measured after 5 mins by scintillation counting
[4] = target: T1, Sodium-dependent serotonin transporter (Homo sapiens, UniProt P31645)
Description: Binding affinity to SERT (unknown origin)

[5] = target: T2, Sodium-dependent dopamine transporter (Homo sapiens, UniProt Q01959)
Description: Binding affinity to DAT (unknown origin)

[6] = target: T3, Sodium-dependent noradrenaline transporter (Homo sapiens, UniProt P23975)
Description: Binding affinity to NET (unknown origin)

[7] = Tmax in human plasma at 30 mg administered qd for 3 days followed by 60 mg administration at qd for next 11 days measured on day 14 post last dose by LC-MS/MS analysis; type: ADME, organism-based
[8] = target: T1, Sodium-dependent serotonin transporter; experiment: Inhibition of SERT (unknown origin)-mediated uptake
[9] = target: T2, Sodium-dependent dopamine transporter; experiment: Inhibition of DAT (unknown origin)-mediated uptake
[10] = Ratio of drug level in human brain to plasma at 30 mg administered qd for 3 days followed by 60 mg administration at qd for next 11 days measured on day 14 post last dose by LC-MS/MS analysis; type: ADME; conditions: read-out: BPR
[11] = Half life in human cerebrospinal fluid at 30 mg administered qd for 3 days followed by 60 mg administration at qd for next 11 days measured on day 14 post last dose by LC-MS/MS analysis; type: ADME, tissue-based
Homo sapiens [12] = experiment: In vivo receptor occupancy at DAT in human at 8 to 16 mg measured 24 hrs post dose by [11C]-PE2I based PET imaging analysis; type: functional
[13] = Tmax in human at 8 to 36 mg by LC-MS/MS analysis; type: ADME, organism-based; conditions: in vivo
Homo sapiens [14] = experiment: In vivo receptor occupancy at SERT in human at 8 to 16 mg after 24 hrs post dose by [11C]-DASB based PET imaging analysis; type: functional
[15] = Half life in human at 4 to 8 mg; type: ADME, organism-based; conditions: in vivo
[16] = Elimination half life in human at 8 to 36 mg by LC-MS/MS analysis; type: ADME, organism-based; conditions: in vivo, read-out: beta t1/2
Homo sapiens [17] = experiment: Anti-obesity activity in human assessed as body weight loss at […], po administered for 6 months relative to control; type: functional
[18] = Tmax in human at 9 mg; type: ADME, organism-based; conditions: in vivo
Homo sapiens [19] = experiment: Anti-obesity activity in human assessed as body weight loss at 1 mg/kg, po administered for 6 months relative to control; type: functional
Homo sapiens [20] = experiment: In vivo receptor occupancy at DAT in human brain at 0.125 to 0.5 mg, iv via bolus dosing measured at 3 hrs post dose by PET analysis; type: functional
Homo sapiens [21] = experiment: Anti-obesity activity in human assessed as body weight loss at 0.5 mg/kg, po administered for 6 months relative to control; type: functional
[22] = target: T2, Sodium-dependent dopamine transporter; experiment: Binding affinity to human DAT
[23] = target: T3, Sodium-dependent noradrenaline transporter; experiment: Binding affinity to human NET
[24] = target: T1, Sodium-dependent serotonin transporter; experiment: Binding affinity to human SERT
[25] = target: T2, Sodium-dependent dopamine transporter; experiment: Binding affinity to human DAT expressed in HEK293 cells after 60 mins in presence of […] by liquid scintillation counting; type: cell-based
[26] = target: T1, Sodium-dependent serotonin transporter; experiment: biochemical; type: cell-based, HEK293
Description: Binding affinity to human SERT expressed in HEK293 cells after 60 mins in presence of [3H]imipramine by liquid scintillation counting

[27] = target: T3, Sodium-dependent noradrenaline transporter; experiment: Binding affinity to human NET expressed in HEK293 cells after 60 mins in presence of [3H]imipramine by liquid scintillation counting; type: cell-based
Homo sapiens [28] = experiment: In vivo receptor occupancy at DAT in iv dosed human measured up to 15 mins by PET analysis; type: functional
[29] = Half life in human brain; type: ADME, tissue-based
Rattus norvegicus [30] = experiment: In vivo receptor occupancy at NET in ip dosed rat brain measured 60 mins post dose; type: functional; conditions: 1 h
Rattus norvegicus [31] = experiment: In vivo receptor occupancy at SERT in ip dosed rat brain measured 60 mins post dose; type: functional; conditions: 1 h
Rattus norvegicus [32] = experiment: In vivo receptor occupancy at DAT in ip dosed rat brain measured 60 mins post dose; type: functional; conditions: 1 h

T2 sequence (Q01959 whole entry): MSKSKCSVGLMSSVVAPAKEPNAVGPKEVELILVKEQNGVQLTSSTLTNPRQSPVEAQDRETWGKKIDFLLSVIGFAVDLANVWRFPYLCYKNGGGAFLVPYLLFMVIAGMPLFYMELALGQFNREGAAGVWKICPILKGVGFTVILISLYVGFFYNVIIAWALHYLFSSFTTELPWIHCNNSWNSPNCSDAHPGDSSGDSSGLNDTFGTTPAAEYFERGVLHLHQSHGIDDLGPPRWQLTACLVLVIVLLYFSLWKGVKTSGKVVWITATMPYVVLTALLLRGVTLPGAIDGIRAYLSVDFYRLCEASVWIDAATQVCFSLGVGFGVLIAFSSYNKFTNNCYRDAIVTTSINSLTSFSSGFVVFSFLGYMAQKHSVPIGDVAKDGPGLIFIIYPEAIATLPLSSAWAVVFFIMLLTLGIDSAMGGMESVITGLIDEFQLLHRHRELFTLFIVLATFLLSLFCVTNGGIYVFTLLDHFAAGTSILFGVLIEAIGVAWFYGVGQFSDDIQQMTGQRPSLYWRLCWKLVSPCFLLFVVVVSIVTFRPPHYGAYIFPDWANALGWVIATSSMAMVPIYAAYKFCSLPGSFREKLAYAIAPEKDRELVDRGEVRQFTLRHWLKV
T3 sequence (P23975 whole entry): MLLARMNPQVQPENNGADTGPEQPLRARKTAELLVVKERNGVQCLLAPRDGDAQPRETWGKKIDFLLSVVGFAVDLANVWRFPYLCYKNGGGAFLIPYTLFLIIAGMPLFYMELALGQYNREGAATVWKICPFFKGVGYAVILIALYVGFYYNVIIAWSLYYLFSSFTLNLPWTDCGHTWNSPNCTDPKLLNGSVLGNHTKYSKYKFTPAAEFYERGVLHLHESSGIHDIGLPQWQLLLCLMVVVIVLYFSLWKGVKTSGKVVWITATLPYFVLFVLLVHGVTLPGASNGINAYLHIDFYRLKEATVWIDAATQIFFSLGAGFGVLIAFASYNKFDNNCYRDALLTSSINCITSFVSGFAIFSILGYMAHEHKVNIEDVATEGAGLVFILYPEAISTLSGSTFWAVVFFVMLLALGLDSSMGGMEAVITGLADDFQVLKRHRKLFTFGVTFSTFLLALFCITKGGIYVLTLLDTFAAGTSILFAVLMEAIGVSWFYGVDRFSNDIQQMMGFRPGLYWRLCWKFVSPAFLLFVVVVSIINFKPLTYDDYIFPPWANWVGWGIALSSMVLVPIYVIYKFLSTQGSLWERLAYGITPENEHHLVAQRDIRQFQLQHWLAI
T1 sequence (P31645 whole entry): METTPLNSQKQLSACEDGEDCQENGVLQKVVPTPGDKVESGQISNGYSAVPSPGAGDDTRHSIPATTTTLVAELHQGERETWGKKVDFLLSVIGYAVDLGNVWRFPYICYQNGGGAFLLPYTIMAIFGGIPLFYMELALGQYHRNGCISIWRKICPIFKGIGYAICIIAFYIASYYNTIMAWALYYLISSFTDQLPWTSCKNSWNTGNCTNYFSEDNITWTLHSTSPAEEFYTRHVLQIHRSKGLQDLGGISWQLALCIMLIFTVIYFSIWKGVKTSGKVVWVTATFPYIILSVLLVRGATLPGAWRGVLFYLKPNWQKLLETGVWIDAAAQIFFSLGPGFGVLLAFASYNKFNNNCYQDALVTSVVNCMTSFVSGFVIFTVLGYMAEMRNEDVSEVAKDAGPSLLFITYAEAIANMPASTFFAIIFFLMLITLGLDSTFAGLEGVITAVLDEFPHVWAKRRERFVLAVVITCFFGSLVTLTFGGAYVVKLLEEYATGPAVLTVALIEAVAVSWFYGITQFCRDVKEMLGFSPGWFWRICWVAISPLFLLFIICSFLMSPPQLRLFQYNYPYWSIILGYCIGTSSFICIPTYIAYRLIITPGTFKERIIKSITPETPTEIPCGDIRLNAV
Sequence of Sodium-dependent dopamine transporter (Rattus norvegicus, UniProt P23977) (P23977 whole entry): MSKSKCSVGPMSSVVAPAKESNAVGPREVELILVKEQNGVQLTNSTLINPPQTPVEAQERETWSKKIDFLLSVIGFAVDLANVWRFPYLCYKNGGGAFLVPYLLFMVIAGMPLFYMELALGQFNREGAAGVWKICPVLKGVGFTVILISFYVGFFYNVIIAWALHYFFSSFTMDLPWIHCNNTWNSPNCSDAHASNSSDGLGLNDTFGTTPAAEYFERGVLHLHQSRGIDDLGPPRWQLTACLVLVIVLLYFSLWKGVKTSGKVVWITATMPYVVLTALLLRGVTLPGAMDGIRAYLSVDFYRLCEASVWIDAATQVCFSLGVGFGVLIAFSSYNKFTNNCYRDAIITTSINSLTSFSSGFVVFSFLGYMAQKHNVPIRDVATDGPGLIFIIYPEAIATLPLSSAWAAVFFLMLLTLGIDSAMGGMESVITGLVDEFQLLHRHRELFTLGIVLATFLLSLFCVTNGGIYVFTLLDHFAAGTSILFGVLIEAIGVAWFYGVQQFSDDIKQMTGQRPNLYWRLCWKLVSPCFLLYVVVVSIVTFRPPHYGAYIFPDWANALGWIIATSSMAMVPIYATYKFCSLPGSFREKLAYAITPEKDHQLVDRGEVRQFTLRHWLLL
Sequence of Norepinephrine transporter (Q9WTR4 whole entry): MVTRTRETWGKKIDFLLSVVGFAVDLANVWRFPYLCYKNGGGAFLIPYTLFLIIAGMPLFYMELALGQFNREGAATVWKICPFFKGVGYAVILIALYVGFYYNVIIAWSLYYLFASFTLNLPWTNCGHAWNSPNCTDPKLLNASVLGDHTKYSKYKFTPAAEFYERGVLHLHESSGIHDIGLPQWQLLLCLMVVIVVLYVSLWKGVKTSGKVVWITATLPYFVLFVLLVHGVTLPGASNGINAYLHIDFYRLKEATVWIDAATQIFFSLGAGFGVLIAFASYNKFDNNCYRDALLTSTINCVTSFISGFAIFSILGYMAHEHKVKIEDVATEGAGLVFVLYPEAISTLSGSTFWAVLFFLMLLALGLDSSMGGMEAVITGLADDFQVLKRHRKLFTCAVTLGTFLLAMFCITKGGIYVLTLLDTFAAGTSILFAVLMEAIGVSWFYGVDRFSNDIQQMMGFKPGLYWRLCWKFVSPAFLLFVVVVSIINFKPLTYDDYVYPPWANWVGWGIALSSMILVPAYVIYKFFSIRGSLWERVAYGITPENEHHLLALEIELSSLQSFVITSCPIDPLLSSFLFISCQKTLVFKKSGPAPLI
Sequence of Sodium-dependent serotonin transporter (Rattus norvegicus, UniProt P31652) (P31652 whole entry): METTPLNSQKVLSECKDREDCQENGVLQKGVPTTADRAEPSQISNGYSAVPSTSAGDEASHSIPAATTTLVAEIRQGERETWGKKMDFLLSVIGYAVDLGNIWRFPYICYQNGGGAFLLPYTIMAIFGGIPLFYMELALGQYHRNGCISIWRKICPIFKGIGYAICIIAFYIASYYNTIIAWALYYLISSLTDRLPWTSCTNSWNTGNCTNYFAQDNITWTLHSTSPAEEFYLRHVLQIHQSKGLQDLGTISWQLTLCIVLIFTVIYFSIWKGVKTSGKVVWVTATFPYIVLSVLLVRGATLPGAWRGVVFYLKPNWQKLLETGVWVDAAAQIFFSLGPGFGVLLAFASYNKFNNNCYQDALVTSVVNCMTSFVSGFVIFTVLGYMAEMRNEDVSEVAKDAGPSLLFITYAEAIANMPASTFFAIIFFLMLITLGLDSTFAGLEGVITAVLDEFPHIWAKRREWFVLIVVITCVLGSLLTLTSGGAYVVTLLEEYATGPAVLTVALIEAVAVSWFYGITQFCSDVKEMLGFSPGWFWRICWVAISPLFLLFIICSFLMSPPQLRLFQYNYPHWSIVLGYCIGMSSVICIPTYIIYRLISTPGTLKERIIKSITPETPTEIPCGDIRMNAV

COC(=O)[C@H]1CN(C)CC[C@@H]1c1ccc(Cl)cc1
IC50 [1]: 8.49 µM | IC50 [2]: 0.252 µM | IC50 [3]: 0.233 µM

CN1Cc2c(N)cccc2C(c2ccc(Cl)c(Cl)c2)C1 (stereo not drawn)
Ki [4]: 0.0103 µM | Ki [5]: 0.0109 µM | Ki [6]: 0.0088 µM

CNC[C@]1(c2ccc(Cl)c(Cl)c2)CC[C@](C)(O)CC1
Tmax [7]: 6 h | IC50 [8]: 0.21 µM | IC50 [9]: 0.071 µM | Kp at 14 day [10]: 0.46 | half-life [11]: 32 h

Cc1cc2cc(OC3C[C@H]4CC[C@@H](C3)N4)ccc2oc1=O (stereo partly drawn)
IC50 [4]: 0.00072 µM | IC50 [5]: 0.15 µM | IC50 [6]: 0.01 µM

N[C@H]1CC[C@H](c2ccc(Cl)c(Cl)c2)c2ccccc21
Occ (Homo sapiens [12]): 33 - 49% | Tmax [13]: 10 to 12 h | Occ (Homo sapiens [14]): 2 - 14% | IC50 [5]: 0.002 µM | IC50 [6]: 0.004 µM | half-life [15]: 47 h | half-life [16]: 44 to 77 h

CCOC[C@H]1[C@@H](c2ccc(Cl)c(Cl)c2)C[C@@H]2CC[C@H]1N2C
Activity (Homo sapiens [17]): 4.5% | IC50 [4]: 0.011 µM | IC50 [5]: 0.008 µM | Tmax [18]: 6 h | IC50 [6]: 0.0032 µM | Activity (Homo sapiens [19]): 10.6% | Occ (Homo sapiens [20]): 18 - 77% | Activity (Homo sapiens [21]): 9.2%

COC[C@@H]1CN[C@@H]2CC[C@@]1(c1ccc(Cl)c(Cl)c1)C2
Ki [22]: 0.0794 µM | Ki [23]: 0.00631 µM | Ki [24]: 0.0316 µM

C[C@]1(O)CC[C@](CN)(c2ccc(Cl)c(Cl)c2)CC1
IC50 [8]: 1.19 µM | IC50 [9]: 0.518 µM

CNC[C@H](c1ccc2ccccc2c1)[C@H](O)c1ccccc1 (racemic)
Ki [25]: 0.043 µM | Ki [26]: 0.012 µM | Ki [27]: 0.0012 µM

COC(=O)[C@H](c1ccccc1)[C@H]1CCCCN1 (racemic) [DEXMETHYLPHENIDATE]
Occ (Homo sapiens [28]): 60% | half-life [29]: 1.5 h

CN(C)C[C@H](c1ccc2ccccc2c1)[C@H](O)C1CCCCC1 (racemic)
Ki [25]: 0.053 µM | Ki [26]: 0.006 µM | Ki [27]: 0.01 µM

CC(NC(C)(C)C)C(=O)c1cccc(Cl)c1 (stereo not drawn) [BUPROPION]
Occ (Homo sapiens [28]): <30%

Clc1ccc([C@]23CNCC2C3)cc1Cl (stereo partly drawn)
ED50 (Rattus norvegicus [30]): 2 mg/kg | ED50 (Rattus norvegicus [31]): 0.5 mg/kg | ED50 (Rattus norvegicus [32]): 49 mg/kg

Clc1ccc([C@@H]2CCN[C@@H]3CCOC[C@@H]32)cc1Cl
Ki [22]: 0.0398 µM | Ki [23]: 0.0501 µM | Ki [24]: 0.0316 µM

COC[C@H]1CN[C@@H]2CC[C@@]1(c1ccc(Cl)c(Cl)c1)C2
Ki [22]: 0.00501 µM | Ki [23]: 0.00316 µM | Ki [24]: 0.01 µM

CN(C)C[C@]1(c2ccc3ccccc3c2)CC[C@](C)(O)CC1
IC50 [8]: 0.007 µM | IC50 [9]: 0.167 µM

Clc1ccc(C2CCNCC23COC3)cc1Cl (stereo not drawn)
Ki [22]: 0.158 µM | Ki [23]: 0.158 µM | Ki [24]: 0.0631 µM

COC(=O)[C@H]1[C@@H](OC(=O)c2ccccc2)C[C@@H]2CC[C@H]1N2C [COCAINE]
half-life [29]: 0.333 h
